Reference: ChEMBL document CHEMBL1201862, “PubChem BioAssay data set” (2004)
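1) Cells in 96-well plates. 2) Compound, 48 h, 5 concentrations. 3) Linear interpolation between surrounding doses. 4) Unreached endpoint = highest concentration. Here, GI50 denotes the concentration required for 50% inhibition of growth.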 The source made the active and inactive calls. No stated cut-off is given here; in the data, active = GI50 up to about 1.1 µM and inactive = higher.

How the values were obtained:
Assay in all cases: NCI-60 cell line screen, 48 h
SK-MEL-28 = test system: SK-MEL-28
COLO 205 = test system: COLO 205
OVCAR-3 = test system: OVCAR-3
A549 = test system: A549
CCRF-CEM = test system: CCRF-CEM
U-251 = test system: U-251
DU-145 = test system: DU-145
OVCAR-5 = test system: OVCAR-5
MOLT-4 = test system: MOLT-4
Hs-578T = test system: Hs-578T
NCI-H226 = test system: NCI-H226
A498 = test system: A498
HCT-116 = test system: HCT-116
MCF7 = test system: MCF7
OVCAR-8 = test system: OVCAR-8
SF-539 = test system: SF-539
HT-29 = test system: HT-29
HCT-15 = test system: HCT-15
SN12C = test system: SN12C
PC-3 = test system: PC-3
SF-268 = test system: SF-268
UO-31 = test system: UO-31
SNB-19 = test system: SNB-19
NCI-H460 = test system: NCI-H460
TK-10 = test system: TK-10
SNB-75 = test system: SNB-75
SW-620 = test system: SW-620
BT-549 = test system: BT-549
SK-MEL-5 = test system: SK-MEL-5
CAKI-1 = test system: CAKI-1
HOP-62 = test system: HOP-62
K562 = test system: K562
SK-OV-3 = test system: SK-OV-3
MDA-N = test system: MDA-N
HOP-92 = test system: HOP-92
T47D = test system: T47D
HL-60 = test system: HL-60
HCC 2998 = test system: HCC 2998
SK-MEL-2 = test system: SK-MEL-2
786-0 = test system: 786-0
OVCAR-4 = test system: OVCAR-4
ACHN = test system: ACHN
SF-295 = test system: SF-295
M14 = test system: M14
LOX IMVI = test system: LOX IMVI
MDA-MB-435 = test system: MDA-MB-435
SR = test system: SR
NCI-H522 = test system: NCI-H522
RPMI-8226 = test system: RPMI-8226
RXF 393 = test system: RXF 393
NCI-H23 = test system: NCI-H23
EKVX = test system: EKVX
MDA-MB-231 = test system: MDA-MB-231
IGROV-1 = test system: IGROV-1
KM12 = test system: KM12
Malme-3M = test system: Malme-3M
NCI/ADR-RES = test system: NCI/ADR-RES
UACC-62 = test system: UACC-62
UACC-257 = test system: UACC-257

With `COc1ccc(/C=C(/C(=O)c2ccc(Cl)cc2)N2C=CC=CC2=C(C#N)C#N)cc1OC` the GI50 (SK-MEL-28) was 3.4 µM (inactive), the GI50 (COLO 205) was 1.58 µM (inactive) and the GI50 (OVCAR-3) was 3.72 µM (inactive). The GI50 (A549) was 14.4 µM (inactive), the GI50 (CCRF-CEM) was 0.115 µM (active) and the GI50 (U-251) was 12.1 µM (inactive). For the same compound, the GI50 (DU-145) was 13.7 µM (inactive), the GI50 (OVCAR-5) was 16.2 µM (inactive) and the GI50 (MOLT-4) was 0.685 µM (active). For the same compound, the GI50 (Hs-578T) was 1.66 µM (inactive), the GI50 (NCI-H226) was 17.8 µM (inactive) and the GI50 (A498) was 14.9 µM (inactive). For the same compound, the GI50 (HCT-116) was 2.06 µM (inactive), the GI50 (MCF7) was 3.66 µM (inactive) and the GI50 (OVCAR-8) was 4.27 µM (inactive). The GI50 (SF-539) was 3.92 µM (inactive), the GI50 (HT-29) was 5.01 µM (inactive) and the GI50 (HCT-15) was 2.17 µM. The GI50 (SN12C) was 17.4 µM (inactive), the GI50 (PC-3) was 2.74 µM (inactive) and the GI50 (SF-268) was 3.55 µM (inactive). The GI50 (UO-31) was 1.5 µM (inactive), the GI50 (SNB-19) was 15.1 µM (inactive) and the GI50 (NCI-H460) was 12.9 µM (inactive). The GI50 (TK-10) was 6.32 µM (inactive), the GI50 (SNB-75) was 6.62 µM (inactive) and the GI50 (SW-620) was 1.91 µM (inactive). For the same compound, the GI50 (BT-549) was 7.85 µM (inactive), the GI50 (SK-MEL-5) was 9.25 µM (inactive) and the GI50 (CAKI-1) was 1.31 µM (inactive). For the same compound, the GI50 (HOP-62) was 20.5 µM (inactive), the GI50 (K562) was 0.698 µM (active) and the GI50 (SK-OV-3) was 24.4 µM (inactive). The GI50 (MDA-N) was 4.55 µM (inactive), the GI50 (HOP-92) was 3.51 µM (inactive) and the GI50 (T47D) was 4.06 µM (inactive). For the same compound, the GI50 (HL-60) was 2.37 µM (inactive), the GI50 (HCC 2998) was 1.99 µM (inactive) and the GI50 (SK-MEL-2) was 15.3 µM (inactive). For the same compound, the GI50 (786-0) was 1.94 µM (inactive), the GI50 (OVCAR-4) was 6.58 µM (inactive) and the GI50 (ACHN) was 3.31 µM (inactive). The GI50 (SF-295) was 28.5 µM (inactive), the GI50 (M14) was 3.7 µM (inactive) and the GI50 (LOX IMVI) was 3.39 µM (inactive). The GI50 (MDA-MB-435) was 3.89 µM (inactive), the GI50 (SR) was 2.35 µM (inactive) and the GI50 (NCI-H522) was 0.243 µM (active). The GI50 (RPMI-8226) was 2.47 µM (inactive), the GI50 (RXF 393) was 2.03 µM (inactive) and the GI50 (NCI-H23) was 11.5 µM (inactive). For the same compound, the GI50 (EKVX) was 2.75 µM (inactive), the GI50 (MDA-MB-231) was 6.24 µM (inactive) and the GI50 (IGROV-1) was 5.09 µM (inactive). The GI50 (KM12) was 19.1 µM (inactive), the GI50 (Malme-3M) was 0.914 µM (active) and the GI50 (NCI/ADR-RES) was 10.4 µM (inactive). For the same compound, the GI50 (UACC-62) was 14.9 µM (inactive) and the GI50 (UACC-257) was 6 µM (inactive).
With `NC(=O)c1ccc(NCC2=CC(=O)C=CC2=O)cc1` the GI50 (SK-MEL-28) was 20.5 µM (inactive), the GI50 (COLO 205) was 19.1 µM (inactive) and the GI50 (OVCAR-3) was 16.3 µM (inactive). The GI50 (A549) was > 100 µM (inactive), the GI50 (CCRF-CEM) was 7.01 µM (inactive) and the GI50 (U-251) was 22 µM (inactive). For the same compound, the GI50 (DU-145) was > 100 µM (inactive), the GI50 (OVCAR-5) was 23 µM (inactive) and the GI50 (MOLT-4) was 18.8 µM (inactive). The GI50 (Hs-578T) was 30.3 µM (inactive), the GI50 (NCI-H226) was > 100 µM (inactive) and the GI50 (A498) was 33.9 µM (inactive). For the same compound, the GI50 (HCT-116) was 18.7 µM (inactive), the GI50 (MCF7) was 23 µM (inactive) and the GI50 (OVCAR-8) was 20.4 µM (inactive). The GI50 (SF-539) was 17.1 µM (inactive), the GI50 (HT-29) was 22.1 µM (inactive) and the GI50 (HCT-15) was 19.2 µM. For the same compound, the GI50 (SN12C) was 20.2 µM (inactive), the GI50 (PC-3) was 18.6 µM (inactive) and the GI50 (SF-268) was 22.9 µM (inactive). The GI50 (UO-31) was 17.3 µM (inactive), the GI50 (SNB-19) was > 100 µM (inactive) and the GI50 (NCI-H460) was > 100 µM (inactive). The GI50 (TK-10) was 17.7 µM (inactive), the GI50 (SNB-75) was 21 µM (inactive) and the GI50 (SW-620) was 21.4 µM (inactive). The GI50 (BT-549) was 15.5 µM (inactive), the GI50 (SK-MEL-5) was 15.5 µM (inactive) and the GI50 (CAKI-1) was 19.1 µM (inactive). For the same compound, the GI50 (HOP-62) was > 100 µM (inactive), the GI50 (K562) was 21.8 µM (inactive) and the GI50 (SK-OV-3) was > 100 µM (inactive). The GI50 (MDA-N) was 17.3 µM (inactive), the GI50 (HOP-92) was 16.5 µM (inactive) and the GI50 (T47D) was 28.1 µM (inactive). For the same compound, the GI50 (HL-60) was 11.5 µM (inactive), the GI50 (HCC 2998) was 35.8 µM (inactive) and the GI50 (SK-MEL-2) was 20.4 µM (inactive). The GI50 (786-0) was 19.6 µM (inactive), the GI50 (OVCAR-4) was 19.8 µM (inactive) and the GI50 (ACHN) was 17.7 µM (inactive). The GI50 (SF-295) was > 100 µM (inactive), the GI50 (M14) was 16.9 µM (inactive) and the GI50 (LOX IMVI) was 17.5 µM (inactive). The GI50 (MDA-MB-435) was 17.2 µM (inactive), the GI50 (SR) was 24.9 µM (inactive) and the GI50 (NCI-H522) was 16.3 µM (inactive). For the same compound, the GI50 (RPMI-8226) was 18.7 µM (inactive), the GI50 (RXF 393) was 18.7 µM (inactive) and the GI50 (NCI-H23) was 25.9 µM (inactive). For the same compound, the GI50 (EKVX) was 16.9 µM (inactive), the GI50 (MDA-MB-231) was 20.1 µM (inactive) and the GI50 (IGROV-1) was 20.8 µM (inactive). For the same compound, the GI50 (KM12) was > 100 µM (inactive), the GI50 (Malme-3M) was 19.5 µM (inactive) and the GI50 (NCI/ADR-RES) was 25.6 µM (inactive). For the same compound, the GI50 (UACC-62) was 20.4 µM (inactive) and the GI50 (UACC-257) was 21.1 µM (inactive).
